# Like-named read-outs stand apart in the source and are kept apart here.
# Assays:
# Farage = assay: Apoptosis assay for NHL lines (Caspase 3/7-Glo); assay type: cell-based; settings: NHL DLBCL, 24 hours, n = 1
# Experimental: (§1) Apoptosis Assay for NHL Lines. Prior to testing, cells were grown and expanded in culture flasks to provide sufficient amounts of starting material. Cells were then diluted to their desired densities and added directly to compound-spotted 384-well plates. Cells were allowed to grow for 24 hours in 5% CO2 at 37° C. The apoptotic response was assessed by quantifying the activities of caspase 3 and caspase 7 (Caspase 3/7-Glo) in treated cells and control cells at the 24-hour time point. All data was normalized and represented as a value relative to the DMSO-treated cells. Results were then expressed as CalX, which is the minimum compound concentration required to double the levels of caspase 3/7 relative to those of the DMSO-treated cells during their treatment period.
# KARPAS-422 = assay: Apoptosis assay for NHL lines (Caspase 3/7-Glo); assay type: cell-based; settings: KARPAS-422, NHL DLBCL, 24 hours, n = 1
# Experimental: as §1
# KASUMI-1 = assay: Apoptosis assay for NHL lines (Caspase 3/7-Glo); assay type: cell-based; settings: KASUMI-1, Leukemia M-AML, 24 hours, n = 1
# Experimental: as §1
# KG-1 = assay: Apoptosis assay for NHL lines (Caspase 3/7-Glo); assay type: cell-based; settings: KG-1, Leukemia M-AML, 24 hours, n = 1
# Experimental: as §1
# MOLM-13 = assay: Apoptosis assay for NHL lines (Caspase 3/7-Glo); assay type: cell-based; settings: MOLM-13, Leukemia M-AML, 24 hours, n = 1
# Experimental: as §1
# OCI-LY-19 = assay: Apoptosis assay for NHL lines (Caspase 3/7-Glo); assay type: cell-based; settings: OCI-LY-19, NHL DLBCL, 24 hours, n = 1
# Experimental: as §1
# OCI-LY-3 = assay: Apoptosis assay for NHL lines (Caspase 3/7-Glo); assay type: cell-based; settings: OCI-LY-3, NHL DLBCL, 24 hours, n = 1
# Experimental: as §1
# REC-1 = assay: Apoptosis assay for NHL lines (Caspase 3/7-Glo); assay type: cell-based; settings: REC-1, NHL MCL, 24 hours, n = 1
# Experimental: as §1
# SC-1 = assay: Apoptosis assay for NHL lines (Caspase 3/7-Glo); assay type: cell-based; settings: SC-1, NHL FL, 24 hours, n = 1
# Experimental: as §1
# Toledo = assay: Apoptosis assay for NHL lines (Caspase 3/7-Glo); assay type: cell-based; settings: NHL DLBCL, 24 hours, n = 1
# Experimental: as §1
# WSU-FSCCL = assay: Apoptosis assay for NHL lines (Caspase 3/7-Glo); assay type: cell-based; settings: NHL FL, 24 hours, n = 1
# Experimental: as §1
# WSU-NHL = assay: Apoptosis assay for NHL lines (Caspase 3/7-Glo); assay type: cell-based; settings: NHL FL, 24 hours, n = 1
# Experimental: as §1
# [1] = system: NSCLC primary tumor grafts; assay: Low passage tumorgraft models of NSCLC; assay type: in vivo, immunocompromised mice; settings: 1, 5 and 10 mg/kg once daily for 28 days
# Experimental: In Vivo Evaluation of Compound 1 in Low Passage Tumorgraft Models of Non-Small Cell Lung Cancer (NSCLC). The objective of the study was to evaluate the single agent efficacy of Compound 1 in non-small cell lung cancer (NCSLC) models. The antitumor activity of Compound 1 was evaluated in low passage non-small cell lung cancer (NSCLC) tumorgraft models. The tumorgrafts were developed by directly implanting the human tumor fragments into immunocompromised mice and then subsequently passaged in vivo. The tumors from these primary tumorgrafts have preserved biological and morphological characteristics of the original human tumors. The antitumor activity of Compound 1 was evaluated at three dose levels (1, 5 and 10 mg/kg) with once daily dosing for 28 days. During the course of the study antitumor activity was evaluated by measuring the tumors.
# HCC = assay: Phase 1/2 study Part B: tumor response, HCC; assay type: in vivo, human; settings: 14 evaluable patients
# Text: In Part B, subjects may start Compound 1 at the MTD and/or a lower dose level based on safety, PK and PD data from Part A. Approximately 150 subjects will be treated and evaluated for safety and preliminary antitumor activity after every two cycles of therapy. Tumor types include non-small cell lung cancer (NSCLC), glioblastoma multiforme (GBM), hepatocellular carcinoma (HCC), gastrointestinal neuroendocrine tumor of non-pancreatic origin (NET), diffuse large B-cell lymphoma (DLBCL), multiple myeloma (MM), and hormone receptor positive breast cancer (HRPBC). Up to 20 subjects will be enrolled in each tumor type.
# Subjects will be evaluated for efficacy every 2 cycles through cycle 6 and every 3 cycles thereafter. The primary efficacy variable is response. Tumor assessments, including imaging (CT, MRI and/or PET) of the chest and abdomen and other sites as appropriate, will be performed during Screening. Subjects with brain lesions will also have brain scans at Screening and during follow-up tumor assessments. After Screening, tumor assessments (for all tumors except multiple myeloma) will be performed on completion of Cycles 2, 4 and 6 (i.e., on Cycles 3, 5 and 7/Day 1±7 days) and then every 3 months thereafter (e.g., Cycle 10 and 13/Day 1±7 days). Tumor assessment (for multiple myeloma and only NHL/DLBCL with known or suspected marrow involvement) (bone marrow aspiration and biopsy, with PD biomarker analysis, cytogenetic analysis if abnormally present at Screening) will be performed on completion of Cycles 4, 8, 12 and 16 only (i.e., on Cycles 5, 9, 13 and 17/Day 1±7 days). Cytogenetics need not be repeated if normal at Screening. […] Subjects will be evaluated for tumor response on completion of Cycle 2, 4, 6, and so on. […]
# For Part B, efficacy variables to be analyzed include tumor response at the end of treatment, the proportion of subject alive and progression-free, and duration of response. […]
# Anbl 6 = assay: Cell proliferation and viability assay for MM lines; assay type: cell-based; settings: Homo sapiens, 120 h, Anbl 6, 5 days, 7AAD FACS
# Experimental: Cell Proliferation and Viability Assay for MM Lines. Prior to use, cells were washed and maintained in medium for 5 days. Cells were seeded out at a density of 0.3×10^6 cells/mL in a 12-well plate and treated with Compound 1 or Compound 2 for 5 days. 7AAD detection fluorescence-activated cell sorting (FACS) flow cytometry was used in the analysis.
compound,measurement,setting,value
"CO[C@H]1CC[C@H](N2C(=O)CNc3ncc(-c4ccc(C(C)(C)O)nc4)nc32)CC1 [Compound 1, 7-(6-(2-hydroxypropan-2-yl)pyridin-3-yl)-1-((1r,4r)-4-methoxycyclohexyl)-3,4-dihydropyrazino-[2,3-b]pyrazin-2(1H)-one]",CalX (minimum concentration to double caspase 3/7),Farage,0.47
same,Apoptotic,KARPAS-422,N/Y
same,CalX (minimum concentration to double caspase 3/7),KARPAS-422,5.16
same,Apoptotic,KASUMI-1,N/Y
same,CalX (minimum concentration to double caspase 3/7),KASUMI-1,6.52
same,CalX (minimum concentration to double caspase 3/7),KG-1,10
same,Apoptotic,MOLM-13,N/Y
same,CalX (minimum concentration to double caspase 3/7),MOLM-13,7.24
same,CalX (minimum concentration to double caspase 3/7),OCI-LY-19,1.13
same,CalX (minimum concentration to double caspase 3/7),OCI-LY-3,0.67
same,CalX (minimum concentration to double caspase 3/7),REC-1,0.79
same,CalX (minimum concentration to double caspase 3/7),SC-1,10
same,Apoptotic,Toledo,N/Y
same,CalX (minimum concentration to double caspase 3/7),Toledo,3.48
same,CalX (minimum concentration to double caspase 3/7),WSU-FSCCL,0.16
same,CalX (minimum concentration to double caspase 3/7),WSU-NHL,0.16
same,growth of tumor grafts,[1],significantly inhibited
same,best target lesions responses (reduction),HCC,up to 47%
same,patients meeting Partial Response (RECIST 1.1),HCC,2 patients
same,patients meeting at least Stable Disease (RECIST 1.1),HCC,5 patients
"CCN1C(=O)CNc2ncc(-c3ccc(-c4nc[nH]n4)nc3C)nc21 [Compound 2, 1-ethyl-7-(2-methyl-6-(1H-1,2,4-triazol-3-yl)pyridin-3-yl)-3,4-dihydropyrazino[2,3-b]pyrazin-2(1H)-one]",IC50,"Anbl 6; read-out: IC50, Proliferation",370 nM
same,IC50,"Anbl 6; read-out: IC50, Viability",780 nM

# From patent US9493466B2, “Treatment of cancer with TOR kinase inhibitors” (Signal Pharmaceuticals, LLC, priority 2011, dated 2016)
